Patent publication US5202315A, “Cephalosporin compounds” (Lucky, Ltd., priority 1989, dated 1993)
Values after ≈ are worked out from the molar mass of the structure shown. Like-named read-outs stand apart in the source and are kept apart here.

Tests used:
[1] = tested on: Acinetobacter calcoaceticus ATCC 15473; experiment: Antibacterial activity, MIC; assay type: cell-based; conditions: ATCC15473, ATCC 15473, agar two-fold dilution, 37° C., 20 hours, read-out: MIC
In short: (§1)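 Incubation at 37 °C for 20 h followed inoculation of 2 μl standard strain (10^7 CFU/ml) onto agar carrying the compound. Compound was incorporated into Mueller-Hinton agar as two-fold serial dilutions.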

[2] = tested on: Bacillus cereus ATCC 11778; experiment: Antibacterial activity, MIC; assay type: cell-based; conditions: ATCC11778, ATCC 11778, agar two-fold dilution, 37° C., 20 hours, read-out: MIC
In short: as §1

[3] = tested on: Bacillus megaterium ATCC 9885; experiment: Antibacterial activity, MIC; assay type: cell-based; conditions: Priestia megaterium, ATCC9885; ATCC 9885; agar two-fold dilution, 37° C., 20 hours; read-out: MIC
In short: as §1

[4] = tested on: Citrobacter freundii ATCC 8090; experiment: Antibacterial activity, MIC; assay type: cell-based; conditions: ATCC8090, ATCC 8090, agar two-fold dilution, 37° C., 20 hours, read-out: MIC
In short: as §1

[5] = tested on: Enterobacter aerogenes ATCC 29751; experiment: Antibacterial activity, MIC; assay type: cell-based; conditions: Klebsiella aerogenes, ATCC29751; ATCC 29751; agar two-fold dilution, 37° C., 20 hours; read-out: MIC
In short: as §1

[6] = tested on: Enterobacter cloacae ATCC 27508; experiment: Antibacterial activity, MIC; assay type: cell-based; conditions: ATCC27508, ATCC 27508, agar two-fold dilution, 37° C., 20 hours, read-out: MIC
In short: as §1

[7] = tested on: Escherichia coli ATCC 10536; experiment: Antibacterial activity, MIC; assay type: cell-based; conditions: ATCC10536, agar two-fold dilution, 37° C., 20 hours
In short: as §1

[8] = tested on: Escherichia coli ATCC 25922; experiment: Antibacterial activity, MIC; assay type: cell-based; conditions: ATCC25922, agar two-fold dilution, 37° C., 20 hours
In short: as §1

[9] = tested on: Klebsiella pneumoniae ATCC 10031; experiment: Antibacterial activity, MIC; assay type: cell-based; conditions: ATCC10031, ATCC 10031, agar two-fold dilution, 37° C., 20 hours, read-out: MIC
In short: as §1

[10] = tested on: Morganella morganii ATCC 8076h; experiment: Antibacterial activity, MIC; assay type: cell-based; conditions: ATCC8076H, agar two-fold dilution, 37° C., 20 hours
In short: as §1

[11] = tested on: Proteus mirabilis ATCC 25933; experiment: Antibacterial activity, MIC; assay type: cell-based; conditions: ATCC25933, ATCC 25933, agar two-fold dilution, 37° C., 20 hours, read-out: MIC
In short: as §1

[12] = tested on: Proteus vulgaris ATCC 6059; experiment: Antibacterial activity, MIC; assay type: cell-based; conditions: ATCC6059, ATCC 6059, agar two-fold dilution, 37° C., 20 hours, read-out: MIC
In short: as §1

[13] = tested on: Providencia rettgeri ATCC 9250; experiment: Antibacterial activity, MIC; assay type: cell-based; conditions: ATCC9250, agar two-fold dilution, 37° C., 20 hours
In short: as §1

[14] = tested on: Pseudomonas aeruginosa ATCC 25619; experiment: Antibacterial activity, MIC; assay type: cell-based; conditions: ATCC25619, ATCC 25619, agar two-fold dilution, 37° C., 20 hours, read-out: MIC
In short: as §1

[15] = tested on: Pseudomonas aeruginosa ATCC 27853; experiment: Antibacterial activity, MIC; assay type: cell-based; conditions: ATCC27853, ATCC 27853, agar two-fold dilution, 37° C., 20 hours, read-out: MIC
In short: as §1

[16] = tested on: Salmonella typhimurium ATCC 14028; experiment: Antibacterial activity, MIC; assay type: cell-based; conditions: Salmonella enterica; ATCC 14028; agar two-fold dilution, 37° C., 20 hours; read-out: MIC
In short: as §1

[17] = tested on: Serratia marcescens ATCC 27117; experiment: Antibacterial activity, MIC; assay type: cell-based; conditions: ATCC27117, ATCC 27117, agar two-fold dilution, 37° C., 20 hours, read-out: MIC
In short: as §1

[18] = tested on: Shigella flexneri ATCC 11836; experiment: Antibacterial activity, MIC; assay type: cell-based; conditions: ATCC11836, agar two-fold dilution, 37° C., 20 hours
In short: as §1

[19] = tested on: Shigella sonnei ATCC 11060; experiment: Antibacterial activity, MIC; assay type: cell-based; conditions: ATCC11060, ATCC 11060, agar two-fold dilution, 37° C., 20 hours, read-out: MIC
In short: as §1

[20] = tested on: Staphylococcus aureus ATCC 6538p; experiment: Antibacterial activity, MIC; assay type: cell-based; conditions: ATCC6538P, ATCC 6538p, agar two-fold dilution, 37° C., 20 hours, read-out: MIC
In short: as §1

[21] = tested on: Staphylococcus epidermidis ATCC 12228; experiment: Antibacterial activity, MIC; assay type: cell-based; conditions: ATCC12228, ATCC 12228, agar two-fold dilution, 37° C., 20 hours, read-out: MIC
In short: as §1

[22] = tested on: Escherichia coli; experiment: Antibacterial activity against clinically isolated strains, MIC; assay type: cell-based; conditions: 38 clinical isolates, broth microdilution test
[23] = tested on: Staphylococcus aureus methicillin susceptible; experiment: as above; assay type: cell-based; conditions: methicillin susceptible, 42 clinical isolates, broth microdilution test
[24] = tested on: Staphylococcus aureus methicillin resistant; experiment: as above; assay type: cell-based; conditions: methicillin resistant, 7 clinical isolates, broth microdilution test
[25] = tested on: Pseudomonas aeruginosa; experiment: as above; assay type: cell-based
[26] = In-vivo absorbency (plasma concentrations & pharmacokinetic parameters); set-up: species or system SD rat (male); conditions: plasma, SD male rat, iv 20 mg/kg; for half-life: rat, iv, 20 mg/kg
Source text: The blood samples from the femoral vein of the rats were taken every hour after administration, and analyzed by bio-assay(agar well method).
Tested animal: SD male Rat (220~340 g)

[27] = as above; set-up: species or system SD rat (male); conditions: plasma, SD male rat, iv 20 mg/kg, read-out: Plasma Conc.

CC(O/N=C(\C(=O)NC1C(=O)N2C(C(=O)[O-])=C(CSc3nc(N)cc(N)[n+]3C)CSC12)c1csc(N)n1)C(=O)O (centres unmarked) [Compound I-4]
MIC [1]: 4 µg/mL (≈ 6.56 µM)
MIC [2]: > 128 µg/mL
MIC [3]: 1 µg/mL (≈ 1.64 µM)
MIC [4]: 0.063 µg/mL (≈ 0.103 µM)
MIC [5]: 1 µg/mL (≈ 1.64 µM)
MIC [6]: 0.016 µg/mL (≈ 0.0262 µM)
MIC [7]: 0.063 µg/mL (≈ 0.103 µM)
MIC [8]: 0.031 µg/mL (≈ 0.0508 µM)
MIC [9]: 0.031 µg/mL (≈ 0.0508 µM)
MIC [10]: ≤ 0.008 µg/mL
MIC [11]: 0.031 µg/mL (≈ 0.0508 µM)
MIC [12]: 0.031 µg/mL (≈ 0.0508 µM)
MIC [13]: ≤ 0.008 µg/mL
MIC [14]: 2 µg/mL (≈ 3.28 µM)
MIC [15]: 1 µg/mL (≈ 1.64 µM)
MIC [16]: 0.13 µg/mL (≈ 0.213 µM)
MIC [17]: 0.063 µg/mL (≈ 0.103 µM)
MIC [18]: 0.031 µg/mL (≈ 0.0508 µM)
MIC [19]: 0.031 µg/mL (≈ 0.0508 µM)
MIC [20]: 4 µg/mL (≈ 6.56 µM)
MIC [21]: 2 µg/mL (≈ 3.28 µM)
MIC50 [22]: 0.031 µg/mL (≈ 0.0508 µM)
MIC90 [22]: 0.063 µg/mL (≈ 0.103 µM)
MIC50 [23]: 4 µg/mL (≈ 6.56 µM)
MIC90 ([23]; read-out: MIC 90%): 4 µg/mL (≈ 6.56 µM)
MIC [24]: > 32 µg/mL
MIC50 [24]: > 32 µg/mL
MIC90 ([24]; read-out: MIC 90%): > 32 µg/mL
MIC90 [25]: 16 µg/mL (≈ 26.2 µM)
MIC50 ([25]; 54 clinical isolates, broth microdilution test): 4 µg/mL (≈ 6.56 µM)
concentration at 1 h ([26]; 60 min, read-out: Plasma Conc.): 2600 ng/mL
concentration at 2 h ([26]; 120 min, read-out: Plasma Conc.): 400 ng/mL
AUC ([26]; two compartment model): 18600 ng·h/mL
half-life ([26]; two compartment model, read-out: T1/2 (α)): 2 min
half-life ([26]; two compartment model, read-out: T1/2 (β)): 26 min
concentration at 1 min ([27]; 1 min): 64000 ng/mL
concentration at 2.5 min ([27]; 2.5 min): 42000 ng/mL
concentration at 5 min ([27]; 5 min): 32000 ng/mL
concentration at 10 min ([27]; 10 min): 14000 ng/mL
concentration at 20 min ([27]; 20 min): 7300 ng/mL
concentration at 40 min ([27]; 40 min): 4500 ng/mL
